The record followed here is ChEMBL document CHEMBL1201862, “PubChem BioAssay data set” (2004).

Active and inactive are the calls of the source.

In one assay the target is X-box-binding protein 1 (Homo sapiens, UniProt P17861). The assay is classed as functional, Cricetulus griseus.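 Also: confirmatory dose-response counter-screen serving a CHOP assay.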
The target of another assay is Protein Rev (Human immunodeficiency virus type 1 group M subtype B (isolate HXB2)(HIV-1), UniProt P04618). As to the kind of experiment: inhibitors of Rev binding to RRE RNA, dose response, biochemical, fluorescence polarization, HIV-1 (AID 434976). Also noted: species or system Human immunodeficiency virus 1.
Assay [1] concerns the target Female germline-specific tumor suppressor gld-1 (Caenorhabditis elegans, UniProt Q17339). As to the kind of experiment: inhibitors of GLD-1 binding to TGE RNA, dose response, biochemical, fluorescence polarization, C. elegans (AID 2802).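 Also: fluorescence polarization of labeled TGE RNA bound by purified gld-1 protein.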
For assay [2], the target named is DNA dC->dU-editing enzyme APOBEC-3A (Homo sapiens, UniProt P31941). As to the kind of experiment: APOBEC3A DNA deaminase inhibitors, dose response, biochemical (AID 504722). The assay is classed as functional.
Assay [3] concerns the target DNA dC->dU-editing enzyme APOBEC-3G (Homo sapiens, UniProt Q9HC16). As to the kind of experiment: Dose Response confirmation of small molecule APOBEC3G DNA Deaminase Inhibitors via a fluorescence-based single-stranded DNA deaminase assay. [Related pubchem assays (depositor defined):AID493012, AID493028]. The assay is classed as functional.
Assay [4] addresses T1, Short transient receptor potential channel 4 (Mus musculus, UniProt Q9QUQ5).
T1 sequence (Q9QUQ5 whole entry): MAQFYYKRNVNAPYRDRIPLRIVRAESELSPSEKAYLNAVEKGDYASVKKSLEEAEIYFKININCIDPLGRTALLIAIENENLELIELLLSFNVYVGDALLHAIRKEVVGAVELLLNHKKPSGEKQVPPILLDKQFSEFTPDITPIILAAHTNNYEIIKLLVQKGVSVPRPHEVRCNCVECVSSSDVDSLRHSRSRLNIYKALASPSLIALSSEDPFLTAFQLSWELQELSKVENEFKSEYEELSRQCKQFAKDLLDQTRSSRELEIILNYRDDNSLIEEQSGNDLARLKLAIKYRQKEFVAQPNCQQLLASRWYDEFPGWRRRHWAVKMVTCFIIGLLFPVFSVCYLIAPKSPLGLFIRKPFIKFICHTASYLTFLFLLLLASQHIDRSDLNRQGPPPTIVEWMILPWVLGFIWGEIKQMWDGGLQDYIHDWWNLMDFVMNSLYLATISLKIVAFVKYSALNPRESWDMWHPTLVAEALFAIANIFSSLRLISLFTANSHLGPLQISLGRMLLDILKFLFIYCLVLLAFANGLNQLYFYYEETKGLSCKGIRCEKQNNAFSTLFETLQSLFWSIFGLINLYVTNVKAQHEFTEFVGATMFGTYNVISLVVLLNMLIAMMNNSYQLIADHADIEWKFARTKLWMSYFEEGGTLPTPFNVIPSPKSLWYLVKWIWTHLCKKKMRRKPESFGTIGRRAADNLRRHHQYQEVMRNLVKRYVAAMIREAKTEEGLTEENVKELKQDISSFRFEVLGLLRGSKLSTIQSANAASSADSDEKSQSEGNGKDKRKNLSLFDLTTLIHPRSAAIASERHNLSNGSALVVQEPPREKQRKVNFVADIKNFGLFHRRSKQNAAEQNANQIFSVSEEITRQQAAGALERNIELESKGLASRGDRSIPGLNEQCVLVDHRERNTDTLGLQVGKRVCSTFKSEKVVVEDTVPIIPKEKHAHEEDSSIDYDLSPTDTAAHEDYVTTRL
As to the kind of experiment: mouse TRPC4 channel inhibitors, dose response, cell-based, HEK293 TRPC4/mu-opioid, Fluo-4 calcium (AID 434942).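 Also: potency of inhibitors blocking the TRPC4 calcium response.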 The format is functional.

Assay [5] concerns the target T2, Neuropeptide Y receptor type 1 (Homo sapiens, UniProt P25929).
T2 sequence (P25929 whole entry): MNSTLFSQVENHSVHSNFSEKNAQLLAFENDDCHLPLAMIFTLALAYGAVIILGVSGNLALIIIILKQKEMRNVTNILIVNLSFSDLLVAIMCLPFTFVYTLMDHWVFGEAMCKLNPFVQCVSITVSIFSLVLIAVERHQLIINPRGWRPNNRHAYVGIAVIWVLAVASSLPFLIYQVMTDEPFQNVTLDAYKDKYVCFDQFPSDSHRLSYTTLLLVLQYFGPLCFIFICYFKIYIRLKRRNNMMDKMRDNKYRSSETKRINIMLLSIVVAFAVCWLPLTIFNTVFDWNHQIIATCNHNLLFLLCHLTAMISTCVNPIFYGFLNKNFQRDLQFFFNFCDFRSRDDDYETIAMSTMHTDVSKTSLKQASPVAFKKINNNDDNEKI
As to the kind of experiment: Fluorescence-based counterscreen for agonists of NPY-Y2: cell-based high-throughput dose response assay for agonists of NPY-Y1. The format is functional.

For assay [6], the target named is T3, Neuropeptide Y receptor type 2 (Homo sapiens, UniProt P49146).
T3 sequence (P49146 whole entry): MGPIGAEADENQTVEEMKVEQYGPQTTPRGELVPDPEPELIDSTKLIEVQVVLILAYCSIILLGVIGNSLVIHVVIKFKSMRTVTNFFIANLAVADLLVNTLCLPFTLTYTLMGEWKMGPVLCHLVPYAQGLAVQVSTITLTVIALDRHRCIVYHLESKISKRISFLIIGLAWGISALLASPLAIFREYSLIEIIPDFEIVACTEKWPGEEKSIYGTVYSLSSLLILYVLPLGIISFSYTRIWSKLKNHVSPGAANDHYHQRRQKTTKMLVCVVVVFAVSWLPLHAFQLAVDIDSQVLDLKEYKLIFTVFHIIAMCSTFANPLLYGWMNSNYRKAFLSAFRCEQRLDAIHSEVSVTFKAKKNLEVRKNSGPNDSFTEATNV
In words: Fluorescence-based cell-based high-throughput dose response assay for agonists of NPY-Y2. [Related pubchem assays: 1703 (Screening assay (CNGC inhibitors).), 1359 (Screening assay (NPY-Y2 potentiators or agonists).), 1304 (Screening assay (NPY-Y1 potentiators or agonists).), 1710 (Screening assay (NPY-Y2 agonists).), 1791 (Summary AID.)]. The assay is classed as functional.

For assay [7], the target named is Eukaryotic translation initiation factor 4E (Mus musculus, UniProt P63073). As to the kind of experiment: eIF4E–eIF4G protein interaction inhibitors, dose response, biochemical, TR-FRET (AID 855).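 Also: potency for disrupting eIF4E binding to eIF4GI seen as loss of FRET.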 The format is functional.
The test system of a further assay is HEK293. As to the kind of experiment: Fluorescence-based counterscreen for potentiators or agonists of NPY-Y2: cell-based high-throughput dose response assay to identify inhibitors of cyclic nucleotide gated ion channel (CNGC) activity. In this assay, the parental HEK293 cell line transfected with a cyclic-nucleotide gated ion channel (CNGC)-based cAMP sensor is used to measure inhibition of isoproterenol-induced CNGC activity by test compound. The format is functional. To be noted: Homo sapiens.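 Also: stimulus is 1 µM isoproterenol at EC100 plus PDE inhibitor Ro 20-1724 at 25 µM.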

For another assay, the target named is T4, Streptokinase A (Streptococcus pyogenes serotype M1, UniProt P10520).
T4 sequence (P10520 whole entry): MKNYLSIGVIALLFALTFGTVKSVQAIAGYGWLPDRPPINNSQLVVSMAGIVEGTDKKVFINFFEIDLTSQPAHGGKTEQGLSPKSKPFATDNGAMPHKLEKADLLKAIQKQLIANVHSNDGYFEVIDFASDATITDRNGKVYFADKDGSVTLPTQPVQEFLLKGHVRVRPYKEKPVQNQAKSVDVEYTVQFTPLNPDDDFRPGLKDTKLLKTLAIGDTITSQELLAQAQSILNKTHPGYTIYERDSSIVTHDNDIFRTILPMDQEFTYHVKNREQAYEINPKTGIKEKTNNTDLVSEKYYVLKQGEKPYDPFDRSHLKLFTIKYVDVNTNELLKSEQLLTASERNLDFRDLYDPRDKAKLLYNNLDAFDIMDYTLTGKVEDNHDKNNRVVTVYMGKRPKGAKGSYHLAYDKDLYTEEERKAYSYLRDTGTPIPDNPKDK
As to the kind of experiment: S. pyogenes streptokinase expression inhibitors, potency, dose response, plasminogen activation absorbance, OD405 (AID 1914).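 Also: secreted streptokinase activity via plasminogen activation per viability signal from cell pellet.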 The assay is classed as functional, Streptococcus pyogenes M1 GAS.

The subject of assay [8] is Streptococcus sp. 'group A'. In words: growth inhibition of control SK(-) GAS strain, dose response, counter-screen for streptokinase expression inhibitor project, luminescence, kanamycin, BacTiterGlo, confirmation (AID 1900). The format is functional, organism-based.
Assay [9] has as its system Streptococcus. As to the kind of experiment: Luminescence Microorganism-Based Dose Response Follow up to Identify Compounds Cytotoxic to Streptococcus. [Related pubchem assays: 1677 (Project Summary), 1915, 1914, 1902 (Retest at Dose), 1900 (Counter Screen), 1662 (Primary HTS)]. The assay is classed as functional, organism-based.
The test system of assay [10] is Streptococcus. As to the kind of experiment: Group A Streptococcus viability loss, dose response, counter-screen for streptokinase expression inhibitor project, luminescence, BacTiterGlo (AID 1915).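 Also: potency for reduction of bacterial viability or growth.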 The format is functional, organism-based.

DNA dC->dU-editing enzyme APOBEC-3G, sequence (Q9HC16 whole entry): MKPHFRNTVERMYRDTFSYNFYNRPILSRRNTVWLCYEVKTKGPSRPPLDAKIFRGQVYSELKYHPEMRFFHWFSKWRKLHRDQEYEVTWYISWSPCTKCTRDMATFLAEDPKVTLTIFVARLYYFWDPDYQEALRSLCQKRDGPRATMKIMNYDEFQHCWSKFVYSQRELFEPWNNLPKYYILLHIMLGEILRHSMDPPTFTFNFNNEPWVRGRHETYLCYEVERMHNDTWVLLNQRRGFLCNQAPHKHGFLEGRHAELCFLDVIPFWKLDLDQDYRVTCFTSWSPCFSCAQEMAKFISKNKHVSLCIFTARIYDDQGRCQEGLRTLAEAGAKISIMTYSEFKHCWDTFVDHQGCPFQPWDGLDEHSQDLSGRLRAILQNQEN
Protein Rev, sequence (P04618 whole entry): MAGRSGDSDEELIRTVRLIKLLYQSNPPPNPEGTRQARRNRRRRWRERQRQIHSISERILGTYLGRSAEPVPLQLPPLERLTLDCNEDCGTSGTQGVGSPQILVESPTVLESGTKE
X-box-binding protein 1, sequence (P17861 whole entry): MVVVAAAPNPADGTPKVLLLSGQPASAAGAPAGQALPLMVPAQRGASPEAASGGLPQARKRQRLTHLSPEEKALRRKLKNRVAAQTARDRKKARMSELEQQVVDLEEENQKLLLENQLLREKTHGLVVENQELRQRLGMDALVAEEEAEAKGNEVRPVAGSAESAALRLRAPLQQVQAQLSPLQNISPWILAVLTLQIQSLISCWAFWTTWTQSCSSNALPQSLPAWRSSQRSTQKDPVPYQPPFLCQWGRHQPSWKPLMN
Eukaryotic translation initiation factor 4E, sequence (P63073 whole entry): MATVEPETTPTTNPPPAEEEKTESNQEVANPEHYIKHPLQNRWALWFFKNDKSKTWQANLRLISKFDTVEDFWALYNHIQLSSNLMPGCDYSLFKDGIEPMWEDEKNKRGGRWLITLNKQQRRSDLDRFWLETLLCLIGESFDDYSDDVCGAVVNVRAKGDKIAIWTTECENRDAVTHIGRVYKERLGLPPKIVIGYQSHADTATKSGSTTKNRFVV
Female germline-specific tumor suppressor gld-1, sequence (Q17339 whole entry): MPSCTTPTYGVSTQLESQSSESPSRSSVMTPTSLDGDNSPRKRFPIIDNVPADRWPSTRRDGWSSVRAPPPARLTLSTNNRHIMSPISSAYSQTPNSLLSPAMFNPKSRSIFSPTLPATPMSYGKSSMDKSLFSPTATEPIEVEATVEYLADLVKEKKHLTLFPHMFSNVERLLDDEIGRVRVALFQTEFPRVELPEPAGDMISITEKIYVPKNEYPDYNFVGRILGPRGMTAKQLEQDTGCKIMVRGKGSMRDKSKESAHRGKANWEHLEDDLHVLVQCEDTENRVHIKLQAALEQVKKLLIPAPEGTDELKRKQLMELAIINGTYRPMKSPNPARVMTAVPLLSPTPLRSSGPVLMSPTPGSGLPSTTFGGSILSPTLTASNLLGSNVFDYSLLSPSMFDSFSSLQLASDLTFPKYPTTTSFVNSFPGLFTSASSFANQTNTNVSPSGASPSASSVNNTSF
DNA dC->dU-editing enzyme APOBEC-3A, sequence (P31941 whole entry): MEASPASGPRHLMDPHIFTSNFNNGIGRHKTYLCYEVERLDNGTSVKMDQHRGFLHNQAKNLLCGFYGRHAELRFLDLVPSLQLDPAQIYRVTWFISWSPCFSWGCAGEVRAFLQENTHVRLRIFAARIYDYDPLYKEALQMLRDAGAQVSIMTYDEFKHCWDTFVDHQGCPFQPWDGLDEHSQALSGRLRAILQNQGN

Turning to `CCCCCCn1c(SCCC)nc2c1c(=O)[nH]c(=O)n2C`, the “Absolute IC50 (XBP1)” value on X-box-binding protein 1 was determined as 10 µM.
Regarding `C=CCNC(=O)/C(C#N)=C/c1ccccc1[N+](=O)[O-]`, the results for the IC50 (at Protein Rev; in [1]) were 10.4 µM (not active) and 1.1 µM (active), respectively.
Regarding `CCc1cc(-c2n[nH]c(=S)n2CC)cs1`, the IC50 in [2] was > 100 µM (inactive); in assay [3], 5.02 µM (active).
For the compound `Cc1cccc(N2CCc3c2nc2ccccc2c3N)c1`, the EC50 in [4] was 1.06 µM (active); in [5], 3.07 µM (active); in assay [6], 3.43 µM (active); in the assay on HEK293 it was 9.3 µM (active). In addition, in assay [7], the IC50 was > 64 µM (inactive).
Regarding `CC1CCN(C(=O)N2c3ccccc3Sc3ccccc32)CC1`, the EC50 on Streptokinase A was > 150 µM (not active); in assay [8] it was 13.8 µM (active); in the assay on Streptococcus [9], > 500 µM (not active); with Streptococcus [10], 28.5 µM (active).
